Patent publication US10358453B2, “Antiviral compounds” (priority 2015, dated 2019)
Where two headings read alike, the source gives them in different places.

What was measured:
[1] = Cytotoxicity determination (CCK-8, without addition of virus); type: cell-based; settings: human, HEp-2 cells (uninfected), no virus, Table C = greater than 100 μM, Table D = equal to or less than 100 μM and greater than 10 μM
Protocol: CPE reduction assays are performed as described by Sidwell and Huffman et al., Appl. Microbiol. (1971) 22(5):797-801 with slight modifications. HEp-2 cells (ATCC#, CCL-23) are seeded at a density of 1,500 cells/30 μL/well into the 384-well cell plate(s) (Corning#3701) one day prior to the assay. Compounds are added into 384-well cell plates by Labcyte POD 810 Plate Assembler system. Each of the test compounds is provided to duplicate wells of a 384-well cell plate at final concentrations starting from 100 μM or 1 μM using 1/3 stepwise dilutions for 9 points. Quick-thaw Respiratory Syncytial Virus (RSV) long strain (ATCC#VR-26) stock in a 37° C. water bath. Place on ice until ready to use. Viruses are diluted to the concentration of 100 TCID50/30 μL with medium and 30 μl diluted RSV are added into related wells of 384-well cell plates. For each plate, sixteen wells are set aside as uninfected, untreated cell controls (CC), and nine wells per test plate receive virus only as a control for virus replication (VC). The final DMSO concentration of all wells is 1%. Place the plates at 37° C., 5% CO2 for 5 days.
In order to determine the compound cytotoxicity, in parallel, each of the compounds is applied to duplicate wells in a 384-well cell plate at serial final concentrations starting from 100 μM using ½ stepwise dilutions for 7 points without addition of virus. Incubate the cells at 37° C., 5% CO2 for 5 days. Add 6 μL CCK-8 into each well and incubate in a CO2 incubator at 37° C. for 3-4 h. Read the plates to obtain the optical densities which are used to calculate 50% cytotoxicity concentration (CC50).

recombinant RSV complex = recombinant RSV complex (Human respiratory syncytial virus A, UniProt P28887); assay: RSV polymerase inhibition assay; type: biochemical; settings: 2 h at 30° C., Table E = <1 μM, Table F = <50 μM
Chain of recombinant RSV complex (P28887 whole entry): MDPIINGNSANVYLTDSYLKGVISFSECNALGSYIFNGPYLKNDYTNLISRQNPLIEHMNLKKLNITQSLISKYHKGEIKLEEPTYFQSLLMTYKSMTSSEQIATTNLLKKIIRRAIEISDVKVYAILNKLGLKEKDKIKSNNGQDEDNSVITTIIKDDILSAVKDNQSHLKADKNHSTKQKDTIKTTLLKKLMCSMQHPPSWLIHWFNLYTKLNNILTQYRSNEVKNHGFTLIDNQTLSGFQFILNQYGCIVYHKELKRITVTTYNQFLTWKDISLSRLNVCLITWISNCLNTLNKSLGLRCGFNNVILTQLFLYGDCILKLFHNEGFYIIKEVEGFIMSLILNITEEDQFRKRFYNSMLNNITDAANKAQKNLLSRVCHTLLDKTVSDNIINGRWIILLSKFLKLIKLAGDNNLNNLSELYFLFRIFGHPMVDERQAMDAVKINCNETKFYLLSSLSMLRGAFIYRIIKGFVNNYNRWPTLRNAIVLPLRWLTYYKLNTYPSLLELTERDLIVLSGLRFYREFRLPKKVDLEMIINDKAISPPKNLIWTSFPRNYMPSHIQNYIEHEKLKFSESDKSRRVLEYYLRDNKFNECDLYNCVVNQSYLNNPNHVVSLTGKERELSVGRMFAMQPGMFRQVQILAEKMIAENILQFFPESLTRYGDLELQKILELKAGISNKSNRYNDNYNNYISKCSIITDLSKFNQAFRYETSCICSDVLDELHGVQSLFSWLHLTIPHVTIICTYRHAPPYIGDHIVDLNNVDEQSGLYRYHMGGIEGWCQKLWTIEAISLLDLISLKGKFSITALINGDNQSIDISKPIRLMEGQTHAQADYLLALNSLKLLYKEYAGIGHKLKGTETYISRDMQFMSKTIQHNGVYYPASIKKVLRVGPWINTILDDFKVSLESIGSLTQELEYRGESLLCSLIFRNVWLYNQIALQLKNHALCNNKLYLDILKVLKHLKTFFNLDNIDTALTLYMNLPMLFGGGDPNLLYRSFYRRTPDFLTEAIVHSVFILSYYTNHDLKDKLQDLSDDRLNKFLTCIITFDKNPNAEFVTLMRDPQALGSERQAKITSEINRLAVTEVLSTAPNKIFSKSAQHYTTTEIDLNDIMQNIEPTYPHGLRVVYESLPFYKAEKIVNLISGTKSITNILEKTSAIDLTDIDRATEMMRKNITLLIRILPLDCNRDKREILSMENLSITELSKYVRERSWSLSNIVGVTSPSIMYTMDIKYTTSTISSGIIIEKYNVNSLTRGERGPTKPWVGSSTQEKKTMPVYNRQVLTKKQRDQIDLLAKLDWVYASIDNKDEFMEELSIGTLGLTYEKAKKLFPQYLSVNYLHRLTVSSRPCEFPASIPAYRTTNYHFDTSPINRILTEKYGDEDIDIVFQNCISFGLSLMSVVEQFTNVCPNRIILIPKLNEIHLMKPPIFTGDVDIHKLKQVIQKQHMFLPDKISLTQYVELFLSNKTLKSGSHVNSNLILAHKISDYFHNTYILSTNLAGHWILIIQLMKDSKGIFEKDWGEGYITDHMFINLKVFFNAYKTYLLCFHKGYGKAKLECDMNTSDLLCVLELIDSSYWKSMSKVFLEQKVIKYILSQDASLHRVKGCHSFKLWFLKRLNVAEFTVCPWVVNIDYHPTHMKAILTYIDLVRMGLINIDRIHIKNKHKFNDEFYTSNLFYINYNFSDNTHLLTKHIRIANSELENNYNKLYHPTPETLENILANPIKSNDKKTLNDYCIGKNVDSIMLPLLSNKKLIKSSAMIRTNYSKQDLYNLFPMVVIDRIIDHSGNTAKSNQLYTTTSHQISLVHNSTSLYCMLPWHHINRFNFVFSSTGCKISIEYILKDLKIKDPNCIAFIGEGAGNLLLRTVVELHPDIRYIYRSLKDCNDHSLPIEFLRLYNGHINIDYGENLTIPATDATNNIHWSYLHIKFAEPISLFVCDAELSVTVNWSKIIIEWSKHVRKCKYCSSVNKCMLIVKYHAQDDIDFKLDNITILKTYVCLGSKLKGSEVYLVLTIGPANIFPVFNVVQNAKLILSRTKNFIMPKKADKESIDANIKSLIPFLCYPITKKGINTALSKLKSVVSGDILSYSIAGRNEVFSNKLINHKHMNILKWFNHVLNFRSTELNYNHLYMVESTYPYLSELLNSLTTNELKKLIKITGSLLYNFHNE
Chain of recombinant RSV complex (P03421 whole entry, further chain): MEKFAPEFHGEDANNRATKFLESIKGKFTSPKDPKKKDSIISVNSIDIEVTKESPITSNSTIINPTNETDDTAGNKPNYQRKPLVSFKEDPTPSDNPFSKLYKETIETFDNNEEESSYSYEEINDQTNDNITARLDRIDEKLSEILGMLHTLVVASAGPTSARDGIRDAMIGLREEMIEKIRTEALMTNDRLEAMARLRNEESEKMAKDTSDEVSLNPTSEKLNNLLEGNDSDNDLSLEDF
Protocol: Standard RSV polymerase assays were conducted in the presence of 10 nM recombinant RSV complex in a reaction buffer containing Tris-HCl pH7.5, 6 mM MgCl2, and other additives and substrates including RNA oligonucleotides and radionucleotides. Standard reactions were incubated in 96-well plate format for 2 h at 30° C., in the presence of increasing concentration of inhibitor. The reaction was stopped with 90 μL of 0.1M EDTA, and the reaction product was transferred to a “reading” 96-well plate. After washing of the plate, radiolabeled RNA products were detected according to standard procedures with a Trilux Topcount scintillation counter. The compound concentration at which the enzyme-catalyzed rate was reduced by 50% (IC50) was calculated by fitting the data to a non-linear regression (sigmoidal).

[2] = system: RSV subgenomic replicon 395 HeLa and APC126; assay: RSV subgenomic replicon assay (Renilla luciferase); type: cell-based; settings: human respiratory syncytial virus; RSV replicon cells (395 HeLa 7 days or APC126 3 days); Table G = less than 1 μM, Table H = equal to or higher than 1 μM and less than 50 μM
Description: The RSV subgenomic replicon 395 HeLa and APC126 were licensed from Apath (Brooklyn, N.Y.) and were originally developed by Dr. Mark Meeples of Center for Vaccines & Immunity, the Research Institute at Nationwide Children's Hospital in Columbus, Ohio. To generate subgenomic RSV replicon, three glycoprotein genes, those for SH, G, and F, from a full-length recombinant GFP-expressing (rg) RSV antigenomic cDNA were deleted. In their place, a blasticidin S deaminase (bsd) gene was inserted. Through multiple steps, the RSV replicon was established in HeLa cells (395 Hela) or BHK cells (APC126). Both 395 HeLa and APC126 cells were cultured in Dulbecco's Modified Eagle Medium (DMEM) containing 4500 mg/L D-glucose, L-glutamine, and 110 mg/L sodium pyruvate (Invitrogen, Cat. #11995-040). The medium was further supplemented with 10% (v/v) fetal bovine serum (FBS) (Mediatech, Cat. #35-010-CV), 1% (v/v) penicillin/streptomycin (Mediatech, Cat. #30-002-CI), and 10 μg/mL of Blasticidin (BSD) (Invivogen, Cat. code ant-bl-1). Cells were maintained at 37° C. in a humidified 5% CO2 atmosphere.
Determination of 50% inhibitory concentration (EC50), 90% inhibitory concentration (EC90) and 50% cytotoxic concentration (CC50) in RSV replicon cells were performed by the following procedure. On the first day, 5000 RSV replicon cells per well were plated in a 96-well plate. On the following day, compounds to be tested were solubilized in 100% DMSO to 100X the desired final testing concentration. Each compound was serially diluted (1:3) up to 9 distinct concentrations. Compounds in 100% DMSO were reduced to 10% (v/v) DMSO by diluting 1:10 in cell culture media. A 10 μL sample of the compounds diluted to 10% (v/v) DMSO with cell culture media was used to treat the RSV replicon cells in 96-well format. The final DMSO concentration was 1% (v/v). Cells were incubated with compounds for 7 days (for 395Hela) or 3 days (for APC126) at 37° C. in a 5% CO2 atmosphere. In each assay, positive control that was previously characterized in the RSV replicon assay was included.
The Renilla Luciferase Assay System (Promega, Cat. #E2820) was used to measure anti-RSV replicon activity. Assay plates were set up as stated above. Luminescence was recorded using a Perkin Elmer multilabel counter Victor3V. EC50, the concentration of the drug required for reducing RSV replicon RNA by 50% in relation to the untreated cell control value, was calculated from the plot of percentage reductions of the […] against the drug concentrations using the Microsoft Excel forecast function.

[3] = 10 nM recombinant RSV complex, read-out: IC50
[4] = IC50, 10 nM recombinant RSV complex

Structure (SMILES)	CC50 at 5 days [1] [µM]	IC50 (recombinant RSV complex; [3]) [µM]	EC50 [2] [µM]	IC50 (recombinant RSV complex; [4]) [µM]
C[C@@]1(N)COc2c1cc([C@@](O)(CNC(=O)c1ccc(OC3CC3)c(OCCO)c1)C(F)(F)F)nc2-c1ccc(F)cc1 [Compound 60]	10 to 100	< 1	< 1	–
C[C@@]1(N)CNc2c1cc([C@](O)(CNC(=O)c1ccc(OCCO)c(OC3CC3)c1)C(F)(F)F)nc2-c1ccc(F)cc1 [Compound 61]	10 to 100	< 1	< 1	–
C[C@@]1(N)CNc2c1cc([C@](O)(CNC(=O)c1ccc(OC3CC3)c(OC3CC3)c1)C(F)(F)F)nc2-c1ccc(F)cc1 [Compound 62]	10 to 100	< 50	< 1	–
COc1cc(C(=O)NC[C@@](O)(c2cc3c(c(-c4ccc(F)cc4)n2)OC[C@@]3(C)N)C(F)(F)F)cc(OC)c1CCCO [Compound 65]	10 to 100	< 1	< 1	–
COc1cc(C(=O)NC[C@@](O)(c2cc3c(c(-c4ccc(F)cc4)n2)OC[C@@]3(C)N)C(F)(F)F)cc(OC)c1OCCO [Compound 67]	> 100	–	< 1	< 50
COc1cc(OCCO)cc(C(=O)NC[C@@](O)(c2cc3c(c(-c4ccc(F)cc4)n2)OC[C@@]3(C)N)C(F)(F)F)c1 [Compound 68]	10 to 100	< 1	< 1	–
COc1cc(C(=O)NC[C@@](O)(c2cc3c(c(-c4ccc(F)cc4)n2)NC[C@@]3(C)N)C(F)(F)F)ccc1OC[C@@H](C)O [Compound 69]	10 to 100	< 1	< 1	–
COc1cc(C(=O)NC[C@@](O)(c2cc3c(c(-c4ccc(F)cc4)n2)NC[C@@]3(C)N)C(F)(F)F)ccc1OCC(N)=O [Compound 72]	> 100	< 1	< 1	–
COc1cc(C(=O)NCC(O)(c2cc3c(c(-c4ccc(F)cc4)n2)CCC3(C)N)C(F)(F)F)ccc1OCCO (stereo not drawn) [Compound 73]	10 to 100	< 1	< 1	–
COc1cc(C(=O)NC[C@@](O)(c2cc3c(c(-c4ccc(F)cc4)n2)NC[C@@]3(C)N)C(F)(F)F)cc2cccnc12 [Compound 74]	10 to 100	< 1	< 1	–
COc1cc(C(=O)NC[C@@](O)(c2cc3c(c(-c4ccc(F)cc4)n2)NC[C@@]3(C)N)C(F)(F)F)ncc1OCCO [Compound 75]	10 to 100	< 1	< 1	–
C[C@@]1(N)CNc2c1cc([C@](O)(CNC(=O)c1ccc3c(c1)CC(=O)N3)C(F)(F)F)nc2-c1ccc(F)cc1 [Compound 76]	10 to 100	< 1	< 1	–
COc1cc(C(=O)NC[C@@](O)(c2cc3c(c(-c4ccc(F)cc4)n2)N(C)C[C@@]3(C)N)C(F)(F)F)ccc1OCCO [Compound 79]	10 to 100	< 1	< 1	–
C[C@@]1(N)COc2c1cc([C@](O)(CNC(=O)c1cc(OCCO)c3ncccc3c1)C(F)(F)F)nc2-c1ccc(F)cc1 [Compound 80]	10 to 100	< 1	< 1	–
C[C@@]1(N)CNc2c1cc([C@](O)(CNC(=O)c1cc(OCCO)c3ncccc3c1)C(F)(F)F)nc2-c1ccc(F)cc1 [Compound 81]	10 to 100	< 1	< 1	–
C[C@@]1(N)CNc2c1cc([C@](O)(CNC(=O)c1ccc3c(c1)CC(=O)N3CCO)C(F)(F)F)nc2-c1ccc(F)cc1 [Compound 82]	> 100	–	< 1	< 1
COc1cc(C(=O)NC[C@@](O)(c2cc3c(c(-c4ccc(F)cc4)n2)NC[C@@]3(C)N)C(F)(F)F)cc2cc[nH]c12 [Compound 83]	10 to 100	< 1	< 1	–
COc1cc(C(=O)NC[C@@](O)(c2cc3c(c(-c4ccc(F)cc4)n2)OC[C@@]3(C)N)C(F)(F)F)cc2ccc(CO)nc12 [Compound 84]	10 to 100	< 1	< 1	–
COc1cc(C(=O)NC[C@@](O)(c2cc3c(c(-c4ccc(F)cc4)n2)OC[C@@]3(C)NC(C)=O)C(F)(F)F)ccc1OC[C@@H](C)O [Compound 85]	10 to 100	< 1	< 1	–
COc1cc(C(=O)NCC(O)(c2cc(C(C)(N)C3CC3)cc(-c3ccc(F)cc3)n2)C(F)(F)F)ccc1OC[C@@H](C)O (stereo partly drawn) [Compound 88]	10 to 100	< 1	< 1	–
COc1cc(C(=O)NC[C@@](O)(c2cc3c(c(-c4ccc(F)cc4)n2)OC[C@@]3(C)N)C(F)(F)F)cc2ccc(C(C)(C)O)nc12 [Compound 90]	10 to 100	< 1	< 1	–
COc1cc(C(=O)NC[C@@](O)(c2cc3c(c(-c4ccc(F)cc4)n2)OC[C@@]3(C)N)C(F)(F)F)cc2ccc(C(C)O)nc12 (stereo partly drawn) [Compound 91]	10 to 100	< 1	< 1	–
COc1cc(C(=O)NCC(O)(c2cc3c(c(-c4ccc(F)cc4)n2)OCCC3(N)C2CC2)C(F)(F)F)ccc1OC[C@@H](C)O (stereo partly drawn) [Compound 92]	10 to 100	< 1	< 1	–
COc1nc(C(=O)NC[C@@](O)(c2cc3c(c(-c4ccc(F)cc4)n2)OC[C@@]3(C)N)C(F)(F)F)cc2c1NC(=O)C2 [Compound 93]	10 to 100	< 50	1 to 50	–
C[C@@]1(N)COc2c1cc([C@](O)(CNC(=O)c1cc(OC(F)F)c3[nH]ccc3c1)C(F)(F)F)nc2-c1ccc(F)cc1 [Compound 94]	10 to 100	< 1	< 1	–
COc1cc(C(=O)NC[C@@](O)(c2cc3c(c(-c4ccc(F)cc4)n2)OC[C@@]3(C)N)C(F)(F)F)cc2nc[nH]c12 [Compound 95]	10 to 100	< 1	< 1	–
C[C@@]1(N)COc2c1cc([C@](O)(CNC(=O)c1cc3c(c(OC(F)F)c1)NC(=O)C3)C(F)(F)F)nc2-c1ccc(F)cc1 [Compound 98]	10 to 100	< 1	< 1	–
COc1cc(C(=O)NC[C@](O)(c2cc3c(c(-c4ccc(F)cc4)n2)NCC[C@]3(C)N)C(F)(F)F)ccc1OC[C@@H](C)O [Compound 101]	10 to 100	< 1	< 1	–
